We go through eleven compounds from patent US7125995B2, “Substituted amidoalkyl uracils and their use as inhibitors of the poly(adp-ribose) synthetase (PARS)” (Bayer Aktiengesellschaft, priority 2000, dated 2006).

The target of one assay is T1, human PARS enzyme (Homo sapiens, UniProt P09874).
T1 construct: made in house; host or cells: baculovirus expression system (Bac-To-Bac, Life Technologies)
T1 sequence (P09874 whole entry): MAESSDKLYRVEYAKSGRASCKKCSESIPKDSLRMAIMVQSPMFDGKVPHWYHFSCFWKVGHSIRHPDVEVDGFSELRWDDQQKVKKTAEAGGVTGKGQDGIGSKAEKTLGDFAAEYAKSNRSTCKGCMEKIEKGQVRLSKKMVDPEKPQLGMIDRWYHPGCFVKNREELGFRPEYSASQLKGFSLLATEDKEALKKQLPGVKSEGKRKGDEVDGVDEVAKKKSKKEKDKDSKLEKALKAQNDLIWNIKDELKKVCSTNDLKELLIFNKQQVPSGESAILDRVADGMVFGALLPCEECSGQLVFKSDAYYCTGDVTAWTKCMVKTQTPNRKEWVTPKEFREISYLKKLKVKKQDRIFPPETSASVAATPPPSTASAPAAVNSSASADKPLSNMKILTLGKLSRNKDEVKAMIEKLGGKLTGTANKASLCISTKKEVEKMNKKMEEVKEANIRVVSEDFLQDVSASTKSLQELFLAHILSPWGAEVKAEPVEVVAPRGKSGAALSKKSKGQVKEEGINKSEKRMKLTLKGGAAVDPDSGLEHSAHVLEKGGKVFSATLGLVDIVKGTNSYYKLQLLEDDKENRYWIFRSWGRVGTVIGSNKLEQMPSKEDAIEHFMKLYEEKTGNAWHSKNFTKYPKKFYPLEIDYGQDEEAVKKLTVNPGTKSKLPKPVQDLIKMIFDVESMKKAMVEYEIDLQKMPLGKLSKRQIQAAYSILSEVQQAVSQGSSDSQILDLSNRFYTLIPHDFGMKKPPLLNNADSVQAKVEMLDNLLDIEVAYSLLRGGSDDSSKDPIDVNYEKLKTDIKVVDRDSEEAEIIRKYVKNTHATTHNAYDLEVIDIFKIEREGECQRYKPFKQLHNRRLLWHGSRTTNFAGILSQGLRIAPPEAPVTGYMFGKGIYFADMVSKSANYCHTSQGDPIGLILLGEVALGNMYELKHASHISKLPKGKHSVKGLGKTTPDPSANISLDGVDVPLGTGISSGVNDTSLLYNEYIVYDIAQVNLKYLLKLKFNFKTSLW
The assay is described as follows: PARS inhibition test (in vitro). Conditions: recombinant human PARS, [14C]-NAD+, 10 min room temperature. The format is biochemical. On the procedure: To this end, recombinantly expressed (Bac-To-Bac, Baculo virus expression system; Instruction Manual; Life Technologies) human PARS enzyme is activated in a buffer which contains radioactively labelled [^14C]—NAD^+. The poly(ADP-ribose) units that are synthesized are precipitated using trichloroacetic acid, and the proportion of labelled protein is determined by scintillation measurements. Incubation of PARS with inhibitors leads to a decrease in the proportion of labelled protein and thus to a reduced radioactivity.
• Buffer: 100 mM 2-amino-2-hydroxymethyl-1,3-propanediol (tris)-HCl, pH 7.4 • 10 mM MgCl2 • 1 mM dithiothreitol (DTT) • Tris-HCl and MgCl2 are dissolved in water, DTT is added from an aqueous 100 mM stock solution (stored at −20° C.) and the pH is adjusted with concentrated HCl to 7.4. • DNA: 1 mg/ml of calf thymus DNA • 1 mg/ml of calf thymus DNA (from Sigma) is dissolved in water and sonicated to induce strand breaks. 500 μl aliquots were stored at −20° C. • Histones: 10 mg/ml of type IIA histones, calf thymus • 10 mg/ml of lyophilized histones (from Sigma) are dissolved in water. • 500 μl aliquots are stored at −20° C. • NAD^+ Mix: 2 mM NAD^+ in buffer, • NAD^+ (from Sigma) solutions are prepared freshly before each test. • In each case 3 μl of labelled [^14C]—NAD^+ (2.8 kBq, from Amersham) are added to 7 μl of cold NAD^+ solution. • Trichloroacetic acid (TCA): TCA is stored at 4° C. as a 10% strength by weight solution. • PARS: Human PARS protein is expressed recombinantly in the baculovirus system (Bac-To-Bac, Baculo virus expression system; Instruction Manual; Life Technologies) and purified. 500 μl aliquots are stored at −80° C. Methods
The compounds to be tested are dissolved in DMSO (dimethyl sulphoxide) at a concentration of 10 mM. The assay is carried out in deep 96-well plates. […] The mixture is incubated at room temperature for 10 min, and 1 ml of ice-cold TCA solution is then added, and the precipitated labelled proteins are sucked onto a filter paper (printed filter mat A; from Wallac) using a harvester (from Scatron). The filter is dried, sealed together with a scintillation sheet (Multilex A; from Wallac) and measured in a β counter for 1 min per well.
In addition to the substances described in this application, the known PARS inhibitor 1,5-dihydroxyisoquinoline (DHCH) is tested as reference substance. The results of the test are stated as IC50 values for the inhibition of PARS.
As usually defined, the IC50 is the concentration that gives 50% inhibition. As to `O=C(CCn1c2c(c(=O)[nH]c1=O)CSCC2)NCC(=O)c1ccc2ccccc2c1` [Example 6], the IC50 was found to be 8.5 nM.

For `O=C(CCn1c2c(c(=O)[nH]c1=O)CCCC2)NCC(=O)c1ccc(-c2ccncc2)cc1` [Example 7], the IC50 is 12 nM.

For the compound `Cc1csc2c(N3CCN(C(=O)CNC(=O)CCn4c5c(c(=O)[nH]c4=O)CSCC5)CC3)ncnc12` [Example 15], the IC50 came out at 15 nM.

As for `O=C(CCn1c2c(c(=O)[nH]c1=O)CCCC2)NCC(=O)N1CCN(c2ccccc2C(F)(F)F)CC1` [Example 54], the IC50 came to 80 nM.

The next assay has as its system MHEC5-T cells. The assay is described as follows: Cell protection assay (in vitro), H2O2-induced cell death, Alamar blue. Type of assay: cell-based. Conditions: 3 mM H2O2, 5 hours, 37° C., 50% of maximum cell protection, 10 μM DHCH defined as 100%, read-out: Cell protection (in vitro) EC50. On the procedure:
In accordance with a method described by Bowes [Bowes et al., Br. J. Pharmacol., 124, 1760–1766 (1998)], the ability of PARS inhibitors to protect cells against cell death induced by incubation with H2O2 is examined in a cell protection assay. Incubation of endothelial cells with H2O2 results in the generation of DNA strand breaks which in turn activate PARS, resulting in a drastic energy decrease in the cells and in cell death. Living cells are quantified by a fluorimetric redox indicator (Alamar blue), which is converted in the electron transport system of the mitochondria.
Specifically, 7500 MHEC5-T cells/well (DSM ACC 336; German collection of microorganisms and cell cultures) are sown in 4 replications on a 96-well plate. After 24 hours, the cells are incubated with 3 mM aqueous H2O2 solution and differing concentrations of the substances in the presence of 6% by volume of Alamar blue solution in the medium at 37° C. for 5 hours. The reference substance used is 10 μM 1,5-dihydroxyisoquinoline (DHCH) solution. After the incubation, the fluorescence is measured at an excitation wavelength of 530–560 nm and an emission wavelength of 590 nm. The percentage for the cell protection is calculated as the difference between the living cells treated only with H2O2 and the cells treated with H2O2 and PARS inhibitors. The internal standard used is 10 μM DHCH, which is defined as 100% protection. The results obtained for the other substances are compared to this value.
The EC50 values indicate the concentration at which 50% of maximum cell protection is reached, maximum protection by 10 μM DHCH being defined as 100%.
A general note: Resazurin is reduced to fluorescent resorufin, in cell work by metabolically active cells.
Usually EC50 stands for the concentration needed to bring the measured effect to its halfway point. On to `O=C(CCn1c2c(c(=O)[nH]c1=O)CSCC2)NCC(=O)c1ccc(-c2cnccn2)cc1` [Example 5, 3-(2,4-Dioxo-3,4,7,8-tetrahydro-2H-thiopyrano [4,3-d]pyrimidin-1(5H)-yl)-N-(2-oxo-2-[4-(2-pyrazinyl)phenyl]ethyl)propanecarboxamide], for which the EC50 stood at 70 nM.

As to `O=C(CCn1c2c(c(=O)[nH]c1=O)CCCC2)NCC(=O)c1ccc(-c2ccncc2)cc1` [Example 7], the EC50 was found to be 90 nM.

On to `O=C(CCn1c2c(c(=O)[nH]c1=O)CSCC2)NCC(=O)c1ccc(-c2ccc3c(c2)OCO3)cc1` [Example 12], for which the EC50 worked out at 95 nM.

`Cc1csc2c(N3CCN(C(=O)CNC(=O)CCn4c5c(c(=O)[nH]c4=O)CSCC5)CC3)ncnc12` [Example 15]: the EC50 turned out to be 50 nM.

As for `O=C(CCn1c2c(c(=O)[nH]c1=O)CSCC2)NCC(=O)N1CCN(c2ncc(Br)cn2)CC1` [Example 24], the EC50 came to 20 nM.

With `O=C(CCn1c2c(c(=O)[nH]c1=O)CSCC2)NCC(=O)N1CCN(c2ccccc2)CC1` [Example 30], the EC50 turned out to be 100 nM.

As to `O=C(CCn1c2c(c(=O)[nH]c1=O)CCCC2)NCC(=O)N1CCN(c2ccc([N+](=O)[O-])cc2)CC1` [Example 32], the EC50 stood at 200 nM.

`O=C(CCn1c2c(c(=O)[nH]c1=O)CCCC2)NCC(=O)N1CCN(c2ncc(F)cn2)CC1` [Example 40]: the EC50 was found to be 90 nM.

The assay is the same for the next values; noted with them: 3 mM H2O2, 5 hours, reference substance, read-out: Cell protection EC50 value.
Turning to `Oc1cccc2c(O)nccc12` [DHCH, 1,5-dihydroxyisoquinoline, reference compound], the EC50 was found to be 2000 nM.
